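Values below derive from 48-hour exposures of cells grown in 96-well plates, with endpoints linearly interpolated between the two concentrations bracketing the appropriate inhibition level. At the GI50, growth is halved. TGI denotes the concentration required for complete inhibition of growth.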
test system: A498 renal; assay: NCI tumour cell line growth inhibition, 48 h

Question: `Cn1c(=O)c(-c2ccccc2)c(N=[N+]=[N-])c2ccccc21` was tested. Which TGI did it give?
Answer: > 100 µM

Question: How did the GI50 turn out when `CCC(/C=C/C1OC(=O)C=CC1C)=C\C(C)C/C=C/C(C)=C/C(C)C(=O)C(C)C(O)C(C)C/C(C)=C/C(=O)O` (configuration not stated) was run?
Answer: 0.00131 nM

Question: For `CC1(C)N=C(N)N=C(N)N1c1ccc(CCc2ccccc2)cc1`, which TGI is on record?
Answer: > 100 µM

Question: For `CN(C)CCCN1CCC2(CCC(C(C)(C)C)CC2)CC1`, which TGI is on record?
Answer: 4.6 µM

Question: `Cc1[nH]nc(C(F)(F)F)c1N=NN1CCOCC1` was tested. Which TGI did it give?
Answer: 32.6 µM

Question: With `C=C(C)[C@@H]1CC[C@]2(C(=O)NC3CCCCC3)CC[C@]3(C)[C@H](CC[C@@H]4[C@@]5(C)CCCNC(C)(C)[C@@H]5CC[C@]43C)[C@@H]12` as the compound, how does the GI50 read?
Answer: 14300 nM

Question: What about the TGI of the same compound?
Answer: 28.8 µM

Question: How did the TGI turn out when `S=C(S)NCNC(=S)S.[Zn+2]` was run?
Answer: > 100 µM

Question: `CC1(CCOCc2ccccc2)NC(=O)NC1=O` (configuration not stated) was tested. Which TGI did it give?
Answer: > 100 µM

Question: Which GI50 does the source give for `O=C(Cn1c[n+](CC(=O)c2ccc(-c3ccccc3)cc2)c2ccccc21)Nc1cccc2cccnc12` here?
Answer: 1040 nM

Question: And the TGI?
Answer: 4.84 µM

Question: With `CC(OC(C)(C)C)[C@H](NC(=O)OCC(Cl)(Cl)Cl)C(=O)O` (some centres not stated) as the compound, how does the TGI read?
Answer: > 100 µM

Question: `O=C(O)CCC(NC(=O)c1ccc(Nc2nc3cc(C(F)(F)F)ccc3nc2-c2ccccc2)cc1)C(=O)O` (configuration not stated) was tested. Which TGI did it give?
Answer: > 100 µM

Question: How did the TGI turn out when `c1ccc(CCNc2ccccn2)nc1` was run?
Answer: > 100 µM

test system: HOP-92 NSCLC; assay: NCI tumour cell line growth inhibition, 48 h

Question: How did the TGI turn out when `Cn1c(=O)c(-c2ccccc2)c(N=[N+]=[N-])c2ccccc21` was run?
Answer: > 100 µM

Question: How did the GI50 turn out when `CCC(/C=C/C1OC(=O)C=CC1C)=C\C(C)C/C=C/C(C)=C/C(C)C(=O)C(C)C(O)C(C)C/C(C)=C/C(=O)O` (configuration not stated) was run?
Answer: 5.32 µM

Question: `CC1(C)N=C(N)N=C(N)N1c1ccc(CCc2ccccc2)cc1` was tested. Which TGI did it give?
Answer: 79.7 µM

Question: How did the TGI turn out when `CN(C)CCCN1CCC2(CCC(C(C)(C)C)CC2)CC1` was run?
Answer: 10.1 µM

Question: `Cc1[nH]nc(C(F)(F)F)c1N=NN1CCOCC1` was tested. Which TGI did it give?
Answer: 8.32 µM

Question: Which GI50 does the source give for `C=C(C)[C@@H]1CC[C@]2(C(=O)NC3CCCCC3)CC[C@]3(C)[C@H](CC[C@@H]4[C@@]5(C)CCCNC(C)(C)[C@@H]5CC[C@]43C)[C@@H]12` here?
Answer: 1.55 µM

Question: And the TGI?
Answer: 3.15 µM

Question: How did the TGI turn out when `S=C(S)NCNC(=S)S.[Zn+2]` was run?
Answer: > 100 µM

Question: For `CC1(CCOCc2ccccc2)NC(=O)NC1=O` (configuration not stated), which TGI is on record?
Answer: > 100 µM

Question: Which results are given for `O=C(Cn1c[n+](CC(=O)c2ccc(-c3ccccc3)cc2)c2ccccc21)Nc1cccc2cccnc12`?
Answer: GI50: 0.677 µM; TGI: 2.18 µM

Question: For `CC(OC(C)(C)C)[C@H](NC(=O)OCC(Cl)(Cl)Cl)C(=O)O` (some centres not stated), which TGI is on record?
Answer: > 100 µM

Question: For `O=C(O)CCC(NC(=O)c1ccc(Nc2nc3cc(C(F)(F)F)ccc3nc2-c2ccccc2)cc1)C(=O)O` (configuration not stated), which TGI is on record?
Answer: > 100 µM

Question: With `c1ccc(CCNc2ccccn2)nc1` as the compound, how does the TGI read?
Answer: > 100 µM

Question: For `NCc1ccccc1-c1c2nc(c(-c3ccccc3CN)c3ccc([nH]3)c(-c3ccccc3CN)c3nc(c(-c4ccccc4CN)c4ccc1[nH]4)C=C3)C=C2`, which TGI is on record?
Answer: 22.2 µM

test system: HCC-2998 colon; assay: NCI tumour cell line growth inhibition, 48 h

Question: `Cn1c(=O)c(-c2ccccc2)c(N=[N+]=[N-])c2ccccc21` was tested. Which TGI did it give?
Answer: 47 µM

Question: For `CCC(/C=C/C1OC(=O)C=CC1C)=C\C(C)C/C=C/C(C)=C/C(C)C(=O)C(C)C(O)C(C)C/C(C)=C/C(=O)O` (configuration not stated), which GI50 is on record?
Answer: 2.44 µM

Question: With `CC1(C)N=C(N)N=C(N)N1c1ccc(CCc2ccccc2)cc1` as the compound, how does the TGI read?
Answer: 42.1 µM

Question: With `CN(C)CCCN1CCC2(CCC(C(C)(C)C)CC2)CC1` as the compound, how does the TGI read?
Answer: 0.417 µM

Question: `Cc1[nH]nc(C(F)(F)F)c1N=NN1CCOCC1` was tested. Which TGI did it give?
Answer: 6.11 µM

Question: For `S=C(S)NCNC(=S)S.[Zn+2]`, which TGI is on record?
Answer: > 100 µM

Question: How did the TGI turn out when `CC1(CCOCc2ccccc2)NC(=O)NC1=O` (configuration not stated) was run?
Answer: > 100 µM

Question: What does the source list for `O=C(Cn1c[n+](CC(=O)c2ccc(-c3ccccc3)cc2)c2ccccc21)Nc1cccc2cccnc12`?
Answer: GI50: 1.4 µM; TGI: 2.74 µM

Question: How did the TGI turn out when `CC(OC(C)(C)C)[C@H](NC(=O)OCC(Cl)(Cl)Cl)C(=O)O` (some centres not stated) was run?
Answer: > 100 µM

Question: How did the TGI turn out when `O=C(O)CCC(NC(=O)c1ccc(Nc2nc3cc(C(F)(F)F)ccc3nc2-c2ccccc2)cc1)C(=O)O` (configuration not stated) was run?
Answer: > 100 µM

Question: Which TGI does the source give for `c1ccc(CCNc2ccccn2)nc1` here?
Answer: > 100 µM

Question: For `NCc1ccccc1-c1c2nc(c(-c3ccccc3CN)c3ccc([nH]3)c(-c3ccccc3CN)c3nc(c(-c4ccccc4CN)c4ccc1[nH]4)C=C3)C=C2`, which TGI is on record?
Answer: 76.3 µM

test system: UACC-257 melanoma; assay: NCI tumour cell line growth inhibition, 48 h

Question: With `Cn1c(=O)c(-c2ccccc2)c(N=[N+]=[N-])c2ccccc21` as the compound, how does the TGI read?
Answer: > 100 µM

Question: For `CCC(/C=C/C1OC(=O)C=CC1C)=C\C(C)C/C=C/C(C)=C/C(C)C(=O)C(C)C(O)C(C)C/C(C)=C/C(=O)O` (configuration not stated), which GI50 is on record?
Answer: 0.000294 µM

Question: And the TGI?
Answer: 6.25 µM

Question: How did the TGI turn out when `CC1(C)N=C(N)N=C(N)N1c1ccc(CCc2ccccc2)cc1` was run?
Answer: 32 µM

Question: Which TGI does the source give for `CN(C)CCCN1CCC2(CCC(C(C)(C)C)CC2)CC1` here?
Answer: 2.76 µM

Question: How did the TGI turn out when `Cc1[nH]nc(C(F)(F)F)c1N=NN1CCOCC1` was run?
Answer: 24.4 µM

Question: Which GI50 does the source give for `C=C(C)[C@@H]1CC[C@]2(C(=O)NC3CCCCC3)CC[C@]3(C)[C@H](CC[C@@H]4[C@@]5(C)CCCNC(C)(C)[C@@H]5CC[C@]43C)[C@@H]12` here?
Answer: 1.72 µM

Question: And the TGI?
Answer: 3.31 µM

Question: With `S=C(S)NCNC(=S)S.[Zn+2]` as the compound, how does the TGI read?
Answer: > 100 µM

Question: With `CC1(CCOCc2ccccc2)NC(=O)NC1=O` (configuration not stated) as the compound, how does the TGI read?
Answer: > 100 µM

Question: Which results are given for `O=C(Cn1c[n+](CC(=O)c2ccc(-c3ccccc3)cc2)c2ccccc21)Nc1cccc2cccnc12`?
Answer: GI50: 1.28 µM; TGI: 2.78 µM

Question: `CC(OC(C)(C)C)[C@H](NC(=O)OCC(Cl)(Cl)Cl)C(=O)O` (some centres not stated) was tested. Which TGI did it give?
Answer: > 100 µM

Question: With `O=C(O)CCC(NC(=O)c1ccc(Nc2nc3cc(C(F)(F)F)ccc3nc2-c2ccccc2)cc1)C(=O)O` (configuration not stated) as the compound, how does the TGI read?
Answer: > 100 µM

Question: For `c1ccc(CCNc2ccccn2)nc1`, which TGI is on record?
Answer: > 100 µM

Question: For `NCc1ccccc1-c1c2nc(c(-c3ccccc3CN)c3ccc([nH]3)c(-c3ccccc3CN)c3nc(c(-c4ccccc4CN)c4ccc1[nH]4)C=C3)C=C2`, which TGI is on record?
Answer: 47.7 µM

test system: UO-31 renal; assay: NCI tumour cell line growth inhibition, 48 h

Question: With `Cn1c(=O)c(-c2ccccc2)c(N=[N+]=[N-])c2ccccc21` as the compound, how does the TGI read?
Answer: > 100 µM

Question: With `CCC(/C=C/C1OC(=O)C=CC1C)=C\C(C)C/C=C/C(C)=C/C(C)C(=O)C(C)C(O)C(C)C/C(C)=C/C(=O)O` (configuration not stated) as the compound, how does the GI50 read?
Answer: 0.0312 nM

Question: With `CC1(C)N=C(N)N=C(N)N1c1ccc(CCc2ccccc2)cc1` as the compound, how does the TGI read?
Answer: > 100 µM

Question: How did the TGI turn out when `CN(C)CCCN1CCC2(CCC(C(C)(C)C)CC2)CC1` was run?
Answer: 3.4 µM

Question: Which TGI does the source give for `Cc1[nH]nc(C(F)(F)F)c1N=NN1CCOCC1` here?
Answer: 7.04 µM

Question: What does the source list for `C=C(C)[C@@H]1CC[C@]2(C(=O)NC3CCCCC3)CC[C@]3(C)[C@H](CC[C@@H]4[C@@]5(C)CCCNC(C)(C)[C@@H]5CC[C@]43C)[C@@H]12`?
Answer: GI50: 1420 nM; TGI: 2.73 µM

Question: `S=C(S)NCNC(=S)S.[Zn+2]` was tested. Which TGI did it give?
Answer: > 100 µM

Question: Which TGI does the source give for `CC1(CCOCc2ccccc2)NC(=O)NC1=O` (configuration not stated) here?
Answer: > 100 µM

Question: `O=C(Cn1c[n+](CC(=O)c2ccc(-c3ccccc3)cc2)c2ccccc21)Nc1cccc2cccnc12` was tested. Which GI50 did it give?
Answer: 14200 nM

Question: And the TGI?
Answer: 33.3 µM

Question: Which TGI does the source give for `CC(OC(C)(C)C)[C@H](NC(=O)OCC(Cl)(Cl)Cl)C(=O)O` (some centres not stated) here?
Answer: > 100 µM

Question: With `O=C(O)CCC(NC(=O)c1ccc(Nc2nc3cc(C(F)(F)F)ccc3nc2-c2ccccc2)cc1)C(=O)O` (configuration not stated) as the compound, how does the TGI read?
Answer: > 100 µM

Question: With `c1ccc(CCNc2ccccn2)nc1` as the compound, how does the TGI read?
Answer: > 100 µM
